This passage reports GI50, remaining binding and Kd results from paper PMC5458547, “Discovery of first-in-class reversible dual small molecule inhibitors against G9a and DNMTs in hematological malignancies” (Nature Communications, 2017).

Structures are written as SMILES.

Assay [1] concerns RIVA. The assay can be described thus: Cell proliferation assay (MTS). Format: cell-based. The settings on record: Homo sapiens; ABC-DLBCL, 48 h.
The target in assay [2] is T1, TGFBR1 (Homo sapiens, UniProt P36897).
T1 construct: purchased DiscoverX KINOMEscan (kinases); BPS Bioscience (epigenetic targets)
Description: KINOMEscan kinase profiling. Format: binding. The conditions noted are these: read-out: Percent Control. The protocol:
(§1) Kinase Selectivity Profiling
(§2) (out of which 90 are non-mutant kinases) was performed at DiscoverRx (http://www.discoverx.com/home) using the KINOMEscan™ screening platform at a test concentration of 10 µM. Results for primary screen […]
(§3) positive control signal) / (negative control signal – positive control signal) *100, where negative control corresponds to DMSO treatment (100%) and positive control to the signal obtained with a control competitive compound (0%). […]
(§4) using the Hill equation. Each target was assayed in duplicate. […]

Assay [3] has as its target T2, IGF1R (Homo sapiens, UniProt P08069).
T2 construct: purchased DiscoverX KINOMEscan (kinases); BPS Bioscience (epigenetic targets)
Description: KINOMEscan kinase profiling. Format: binding. The settings on record: read-out: Percent Control. As to the method: as §1, §2, §3, §4

Assay [4] addresses T3, SRC (Homo sapiens, UniProt P12931).
T3 construct: purchased DiscoverX KINOMEscan (kinases); BPS Bioscience (epigenetic targets)
Description: KINOMEscan kinase profiling. The assay is classed as binding. The settings on record: read-out: Percent Control. The protocol: as §1, §2, §3, §4

The target in assay [5] is T4, FGFR2 (Homo sapiens, UniProt P21802).
T4 construct: purchased DiscoverX KINOMEscan (kinases); BPS Bioscience (epigenetic targets)
Description: KINOMEscan kinase profiling. The assay is classed as binding. The conditions noted are these: read-out: Percent Control. As to the method:
as §1, §2, §3, §4

Assay [6] deals with T5, JNK1 (Homo sapiens, UniProt P45983).
T5 construct: purchased DiscoverX KINOMEscan (kinases); BPS Bioscience (epigenetic targets)
Description: KINOMEscan kinase profiling. The assay is classed as binding. The conditions noted are these: read-out: Percent Control. As to the method: as §1, §2, §3, §4

The target of assay [7] is T6, PIK3CA (Homo sapiens, UniProt P42336).
T6 construct: purchased DiscoverX KINOMEscan (kinases); BPS Bioscience (epigenetic targets)
Description: KINOMEscan kinase profiling. The assay is classed as binding. The conditions noted are these: read-out: Percent Control. As to the method:
as §1, §2, §3, §4

Assay [8] deals with T7, FLT3 (Homo sapiens, UniProt P36888).
T7 construct: purchased DiscoverX KINOMEscan (kinases); BPS Bioscience (epigenetic targets)
Description: KINOMEscan kinase profiling. The assay is classed as binding. The settings on record: read-out: Percent Control. The protocol:
as §1, §2, §3, §4

Assay [9] concerns the target T8, ERBB2 (Homo sapiens, UniProt P04626).
T8 construct: purchased DiscoverRx (DiscoverX), KINOMEscan screening platform
Description: KINOMEscan kinase profiling. Format: binding. As to the method: as §1, §2, §3, §4

In assay [10] the target is T9, IKK-alpha (Homo sapiens, UniProt O15111).
T9 construct: purchased DiscoverX KINOMEscan (kinases); BPS Bioscience (epigenetic targets)
The assay can be described thus: KINOMEscan kinase profiling. The assay is classed as binding. The settings on record: read-out: Percent Control. As to the method: as §1, §2, §3, §4

Assay [11] deals with T10, ULK2 (Homo sapiens, UniProt Q8IYT8).
T10 construct: purchased DiscoverX KINOMEscan (kinases); BPS Bioscience (epigenetic targets)
The assay can be described thus: KINOMEscan kinase profiling. The settings on record: read-out: Percent Control. Format: binding. The protocol: as §1, §2, §3, §4

Assay [12] has as its target T11, BRAF (Homo sapiens, UniProt P15056).
T11 construct: purchased DiscoverX KINOMEscan (kinases); BPS Bioscience (epigenetic targets)
The assay can be described thus: KINOMEscan kinase profiling. Format: binding. The conditions noted are these: read-out: Percent Control. The protocol:
as §1, §2, §3, §4

In assay [13] the target is T12, PDGFRA (Homo sapiens, UniProt P16234).
T12 construct: purchased DiscoverX KINOMEscan (kinases); BPS Bioscience (epigenetic targets)
Description: KINOMEscan kinase profiling. The assay is classed as binding. The conditions noted are these: read-out: Percent Control. The protocol: as §1, §2, §3, §4

In assay [14] the target is T13, ERK1 (Homo sapiens, UniProt P27361).
T13 construct: purchased DiscoverX KINOMEscan (kinases); BPS Bioscience (epigenetic targets)
Description: KINOMEscan kinase profiling. Format: binding. The conditions noted are these: read-out: Percent Control. The protocol: as §1, §2, §3, §4

Assay [15] concerns the target T14, PCTK1 (Homo sapiens, UniProt Q00536).
T14 construct: purchased DiscoverX KINOMEscan (kinases); BPS Bioscience (epigenetic targets)
Description: KINOMEscan kinase profiling. Format: binding. The conditions noted are these: read-out: Percent Control. As to the method: as §1, §2, §3, §4

Assay [16] concerns the target T15, PLK4 (Homo sapiens, UniProt O00444).
T15 construct: purchased DiscoverX KINOMEscan (kinases); BPS Bioscience (epigenetic targets)
Description: KINOMEscan kinase profiling. Format: binding. The settings on record: read-out: Percent Control. The protocol: as §1, §2, §3, §4

Assay [17] addresses T16, PRKCE (Homo sapiens, UniProt Q02156).
T16 construct: purchased DiscoverRx (DiscoverX), KINOMEscan screening platform
Description: KINOMEscan kinase profiling. Format: binding. The protocol:
as §1, §2, §3, §4

For assay [18], the target named is T17, RAF1 (Homo sapiens, UniProt P04049).
T17 construct: purchased DiscoverX KINOMEscan (kinases); BPS Bioscience (epigenetic targets)
The assay can be described thus: KINOMEscan kinase profiling. The assay is classed as binding. The settings on record: read-out: Percent Control. As to the method:
as §1, §2, §3, §4

Assay [19] has as its target T18, MEK2 (Homo sapiens, UniProt P36507).
T18 construct: purchased DiscoverX KINOMEscan (kinases); BPS Bioscience (epigenetic targets)
The assay can be described thus: KINOMEscan kinase profiling. The assay is classed as binding. The settings on record: read-out: Percent Control. The protocol:
as §1, §2, §3, §4

The mark [20] stands for this setting: 10 µM, read-out: Percent Control.

T16 sequence (Q02156 whole entry): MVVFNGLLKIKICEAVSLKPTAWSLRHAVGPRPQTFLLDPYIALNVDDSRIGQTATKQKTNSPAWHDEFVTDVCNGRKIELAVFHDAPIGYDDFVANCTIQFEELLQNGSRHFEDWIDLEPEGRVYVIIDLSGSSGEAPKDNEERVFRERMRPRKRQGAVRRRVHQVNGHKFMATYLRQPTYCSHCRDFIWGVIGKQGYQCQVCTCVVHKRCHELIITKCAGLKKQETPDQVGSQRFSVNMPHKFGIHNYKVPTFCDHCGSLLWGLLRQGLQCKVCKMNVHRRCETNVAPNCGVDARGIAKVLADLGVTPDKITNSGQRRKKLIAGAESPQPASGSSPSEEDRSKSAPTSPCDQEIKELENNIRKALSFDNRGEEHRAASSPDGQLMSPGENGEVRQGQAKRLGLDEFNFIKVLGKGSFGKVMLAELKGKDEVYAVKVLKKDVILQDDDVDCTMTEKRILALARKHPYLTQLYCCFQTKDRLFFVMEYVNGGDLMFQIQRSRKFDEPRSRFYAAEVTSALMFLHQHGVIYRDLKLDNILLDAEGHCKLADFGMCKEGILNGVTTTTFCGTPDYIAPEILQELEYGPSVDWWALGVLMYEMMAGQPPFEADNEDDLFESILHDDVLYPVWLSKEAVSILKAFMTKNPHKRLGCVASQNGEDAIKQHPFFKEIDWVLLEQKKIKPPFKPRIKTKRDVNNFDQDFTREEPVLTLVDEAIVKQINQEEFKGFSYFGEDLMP
T8 sequence (P04626 23-1255): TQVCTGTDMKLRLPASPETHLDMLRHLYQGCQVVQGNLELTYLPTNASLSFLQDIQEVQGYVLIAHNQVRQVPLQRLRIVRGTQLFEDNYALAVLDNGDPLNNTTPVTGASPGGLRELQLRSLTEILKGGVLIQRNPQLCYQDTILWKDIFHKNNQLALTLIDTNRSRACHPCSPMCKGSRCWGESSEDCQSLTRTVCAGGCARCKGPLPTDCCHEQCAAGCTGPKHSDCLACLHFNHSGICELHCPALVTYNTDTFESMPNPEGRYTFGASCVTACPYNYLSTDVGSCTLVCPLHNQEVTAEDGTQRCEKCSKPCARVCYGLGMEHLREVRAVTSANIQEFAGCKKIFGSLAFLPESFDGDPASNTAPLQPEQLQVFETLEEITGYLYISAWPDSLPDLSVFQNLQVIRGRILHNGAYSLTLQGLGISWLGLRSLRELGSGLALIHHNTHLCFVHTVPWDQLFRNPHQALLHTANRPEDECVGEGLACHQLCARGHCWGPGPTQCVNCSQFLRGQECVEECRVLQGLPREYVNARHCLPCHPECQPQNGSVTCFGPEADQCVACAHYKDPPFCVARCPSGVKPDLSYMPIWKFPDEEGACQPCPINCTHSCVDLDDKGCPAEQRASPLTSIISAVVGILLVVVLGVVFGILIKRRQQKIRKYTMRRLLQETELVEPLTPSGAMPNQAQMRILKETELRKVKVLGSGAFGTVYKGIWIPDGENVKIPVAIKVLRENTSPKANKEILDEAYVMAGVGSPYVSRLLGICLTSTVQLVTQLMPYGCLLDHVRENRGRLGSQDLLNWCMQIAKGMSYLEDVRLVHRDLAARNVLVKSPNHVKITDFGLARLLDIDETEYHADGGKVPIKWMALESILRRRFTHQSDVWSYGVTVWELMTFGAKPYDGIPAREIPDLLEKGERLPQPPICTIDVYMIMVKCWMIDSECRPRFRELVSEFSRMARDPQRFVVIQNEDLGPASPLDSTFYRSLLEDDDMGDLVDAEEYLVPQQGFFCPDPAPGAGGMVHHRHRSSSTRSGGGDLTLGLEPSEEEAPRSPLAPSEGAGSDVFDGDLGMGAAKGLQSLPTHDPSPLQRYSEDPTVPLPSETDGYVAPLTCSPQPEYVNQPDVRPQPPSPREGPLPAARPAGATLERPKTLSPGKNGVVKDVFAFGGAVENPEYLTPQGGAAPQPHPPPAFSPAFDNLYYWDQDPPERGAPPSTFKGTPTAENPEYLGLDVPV
T3 sequence (P12931 whole entry): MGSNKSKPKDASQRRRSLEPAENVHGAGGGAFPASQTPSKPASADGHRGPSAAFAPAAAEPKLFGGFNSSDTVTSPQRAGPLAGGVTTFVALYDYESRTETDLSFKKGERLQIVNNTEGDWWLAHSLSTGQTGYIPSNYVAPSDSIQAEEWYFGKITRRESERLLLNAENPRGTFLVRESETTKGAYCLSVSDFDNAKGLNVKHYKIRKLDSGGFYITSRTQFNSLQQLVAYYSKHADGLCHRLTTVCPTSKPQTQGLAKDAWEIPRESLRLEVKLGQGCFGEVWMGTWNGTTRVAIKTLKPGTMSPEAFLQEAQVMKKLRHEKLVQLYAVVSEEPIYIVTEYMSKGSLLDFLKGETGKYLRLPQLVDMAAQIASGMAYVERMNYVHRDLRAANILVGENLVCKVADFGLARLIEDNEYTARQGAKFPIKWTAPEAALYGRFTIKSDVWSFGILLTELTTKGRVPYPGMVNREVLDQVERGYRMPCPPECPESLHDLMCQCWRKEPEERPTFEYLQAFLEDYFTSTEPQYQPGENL
T5 sequence (P45983 whole entry): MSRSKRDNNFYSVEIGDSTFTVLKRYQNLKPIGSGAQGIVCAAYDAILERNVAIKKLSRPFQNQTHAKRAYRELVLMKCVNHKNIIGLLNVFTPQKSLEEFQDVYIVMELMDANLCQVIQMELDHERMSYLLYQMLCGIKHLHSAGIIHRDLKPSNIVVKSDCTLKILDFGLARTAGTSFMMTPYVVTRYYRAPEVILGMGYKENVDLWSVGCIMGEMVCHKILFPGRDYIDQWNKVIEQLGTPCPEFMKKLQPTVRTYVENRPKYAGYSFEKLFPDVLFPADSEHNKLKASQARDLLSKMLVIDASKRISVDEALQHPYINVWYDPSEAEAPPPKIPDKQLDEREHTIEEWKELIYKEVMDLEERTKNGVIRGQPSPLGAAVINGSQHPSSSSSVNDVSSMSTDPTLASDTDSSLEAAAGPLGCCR
T7 sequence (P36888 27-993): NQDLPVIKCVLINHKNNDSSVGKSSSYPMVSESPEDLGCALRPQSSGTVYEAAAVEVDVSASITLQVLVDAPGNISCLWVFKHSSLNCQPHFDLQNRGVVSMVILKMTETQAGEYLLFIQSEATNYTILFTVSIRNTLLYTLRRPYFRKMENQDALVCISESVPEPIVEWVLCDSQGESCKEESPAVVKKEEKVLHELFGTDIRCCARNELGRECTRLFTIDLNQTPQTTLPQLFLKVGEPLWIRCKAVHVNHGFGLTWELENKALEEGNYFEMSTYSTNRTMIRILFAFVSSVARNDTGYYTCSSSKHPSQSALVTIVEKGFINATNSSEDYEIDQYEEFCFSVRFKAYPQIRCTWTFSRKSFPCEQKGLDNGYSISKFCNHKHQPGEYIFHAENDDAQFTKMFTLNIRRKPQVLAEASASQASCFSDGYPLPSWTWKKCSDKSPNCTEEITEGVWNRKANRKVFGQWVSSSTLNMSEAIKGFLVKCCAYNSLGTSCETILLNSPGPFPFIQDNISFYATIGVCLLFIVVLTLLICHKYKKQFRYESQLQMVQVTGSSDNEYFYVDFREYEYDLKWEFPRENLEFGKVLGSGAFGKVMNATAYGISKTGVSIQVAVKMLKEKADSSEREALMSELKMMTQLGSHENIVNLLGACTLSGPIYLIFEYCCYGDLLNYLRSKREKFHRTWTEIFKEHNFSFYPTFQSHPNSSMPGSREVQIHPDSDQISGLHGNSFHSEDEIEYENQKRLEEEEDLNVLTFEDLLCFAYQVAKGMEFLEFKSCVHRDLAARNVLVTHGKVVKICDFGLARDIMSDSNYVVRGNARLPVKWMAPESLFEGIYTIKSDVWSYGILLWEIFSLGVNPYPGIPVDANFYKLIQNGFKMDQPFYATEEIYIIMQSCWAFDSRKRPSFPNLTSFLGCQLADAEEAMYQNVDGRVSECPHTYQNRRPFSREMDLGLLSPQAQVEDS
T13 sequence (P27361 whole entry): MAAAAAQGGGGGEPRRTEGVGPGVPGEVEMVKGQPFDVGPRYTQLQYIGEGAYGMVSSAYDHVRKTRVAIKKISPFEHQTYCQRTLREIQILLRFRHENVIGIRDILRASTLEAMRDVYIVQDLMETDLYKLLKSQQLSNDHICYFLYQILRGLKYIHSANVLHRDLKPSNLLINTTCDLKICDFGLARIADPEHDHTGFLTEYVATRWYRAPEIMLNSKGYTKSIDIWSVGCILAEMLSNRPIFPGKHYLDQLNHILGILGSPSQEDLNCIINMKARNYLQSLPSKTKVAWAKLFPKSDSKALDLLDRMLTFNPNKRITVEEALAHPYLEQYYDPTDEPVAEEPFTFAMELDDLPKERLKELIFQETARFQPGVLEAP
T14 sequence (Q00536 whole entry): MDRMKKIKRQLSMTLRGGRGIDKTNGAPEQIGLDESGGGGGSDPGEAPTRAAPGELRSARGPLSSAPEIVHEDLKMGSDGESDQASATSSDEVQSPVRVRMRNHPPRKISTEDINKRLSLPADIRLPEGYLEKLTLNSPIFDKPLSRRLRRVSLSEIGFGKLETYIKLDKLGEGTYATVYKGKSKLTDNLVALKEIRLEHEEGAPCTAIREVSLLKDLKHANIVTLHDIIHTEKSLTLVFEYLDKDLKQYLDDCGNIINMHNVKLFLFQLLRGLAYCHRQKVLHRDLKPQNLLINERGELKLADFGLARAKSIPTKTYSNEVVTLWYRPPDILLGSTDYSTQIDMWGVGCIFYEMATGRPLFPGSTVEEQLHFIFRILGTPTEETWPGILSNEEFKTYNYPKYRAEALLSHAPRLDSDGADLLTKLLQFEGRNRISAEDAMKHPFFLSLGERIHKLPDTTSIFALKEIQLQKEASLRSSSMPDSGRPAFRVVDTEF

In assay [1], `COc1cc2c(NC3CCN(C)CC3)cc(-c3ccc(C)o3)nc2cc1OCCCN1CCCC1` [CM-272, 6-methoxy-2-(5-methyl-2-furyl)-N-(1-methyl-4-piperidyl)-7-(3-pyrrolidin-1-ylpropoxy)quinolin-4-amine] displayed a concentration for 50% growth inhibition (GI50) of 1570 nM. The remaining binding at 10 µM in [2] is 78%; in [3], 97%; in assay [4], 100%; in assay [5], 100%; in [6], 25%; in assay [7], 40%. Besides, the remaining binding at 10 µM is 100% in [8]; 0% in [9] (setting [20]); 45% in [10]; 9.8% in assay [11]; 14% in assay [12]; 14% in assay [13]. Further, the remaining binding at 10 µM is 100% in assay [14]; 23% in [15]; 80% in assay [16]; 0% in assay [17] (setting [20]); 73% in [18]; 22% in [19]. For the same compound, the dissociation constant (Kd) in [9] (KINOMEscan) was determined as 1600 nM; in [17] (KINOMEscan), 1200 nM.
